# Patent publication US8980917B2, “Methods for treating or preventing brain infections” (The Johns Hopkins University, priority 2008, dated 2015)
# “Also recorded” adds a separate entry of the source. Like-named read-outs stand apart in the source and are kept apart here.
# Legend:
# HBMEC [1] = conditions: cited from earlier work; for E. coli invasion of human BMEC: inhibitors of iPLA2 and sPLA2, refs (1-3, 24); for E. coli invasion of HBMEC: pretreatment with microfilament-disrupting agents, previous experiments
# human BMEC [2] = conditions: inhibitors of iPLA2 and sPLA2; refs (1-3, 24); cited from earlier work
# HBMEC [3] = assay: E. coli K1 binding and invasion assays in human BMEC (HBMEC); assay type: cell-based; conditions: for E. coli K1 invasion of HBMEC: strain RS218, HBMEC pretreated 30 mins, compared to vehicle control (DMSO); for E. coli K1 invasion of human BMEC monolayers: inhibitors of cPLA2α, Rho kinase, Rac1 and PKC
# Experimental: E. coli strain RS218 was grown overnight in BHI broth in the presence of streptomycin (50 μg/ml). Bacteria were resuspended in experimental medium [M199-HamF12 (1:1) containing 5% heat-inactivated fetal bovine serum, 2 mM glutamine, and 1 mM pyruvate] and added in a multiplicity of infection (MOI) of 100:1 to HBMEC grown in collagen-coated 24-well plates at 37° C. in 5% CO2 incubator for 90 min for binding assay as described previously (9, 10, 14, 28). HBMEC were washed four times with PBS to remove unbound bacteria, lysed in 0.025% Triton X-100 and plated for determinations of CFUs. The results were calculated as a percent of the initial inoculum and expressed as percent relative binding compared to percent binding of RS218 in the presence of vehicle control (DMSO). Each set was run in triplicates.
# The HBMEC invasion assay with gentamicin treatment was performed to determine the number of viable intracellular bacteria recovered from the infected HBMEC, as previously described (9, 10, 14, 28). E. coli K1 strain RS218 was added to HBMEC as described above for binding assay. HBMEC were subsequently washed with RPMI 1640 and incubated with experimental media containing gentamicin (100 μg/ml) for 1 h to kill extracellular bacteria. The cells were washed again with PBS and lysed in 0.025% Triton X-100. The released intracellular bacteria were enumerated by plating on sheep blood agar plates. The results were calculated as a percent of the initial inoculum and expressed as percent relative invasion compared to percent invasion of RS218 in the presence of vehicle control (DMSO). Each set was run in triplicates.
# To examine the effects of inhibitors and antagonists on E. coli K1 binding to and invasion of HBMEC, HBMEC were pretreated with inhibitors or antagonists for 30 mins before addition of E. coli, and then processed for binding and invasion assays as described above.
# E. coli strain RS218 (O18:K1:H7), a cerebrospinal fluid isolate from a neonate with meningitis, was grown overnight in brain heart infusion (BHI) broth (Difco Laboratories, Detroit, Mich.). Bacteria were resuspended in experimental medium [M199-HamF12 (1:1) containing 5% heat-inactivated fetal bovine serum, 2 mM glutamine, and 1 mM pyruvate] and added in a multiplicity of infection (MOI) of 100:1 to BMECs grown in collagen-coated 24-well plates at 37° C. in 5% CO2 incubator for 90 min for binding assay, as previously described^11. BMECs were washed four times with PBS to remove unbound bacteria, lysed in 0.025% Triton X-100 and plated for determinations of CFUs. The results were calculated as a percent of the initial inoculum and expressed as percent relative binding compared to percent binding of RS218 in the presence of vehicle control (DMSO). Each set was run in triplicates.
# The BMEC invasion assay with gentamicin treatment^11 was performed to determine the number of viable intracellular bacteria recovered from the infected BMECs. E. coli K1 strain RS218 was added to BMEC as described above for binding assay. BMECs were subsequently washed with RPMI 1640 and incubated with experimental media containing gentamicin (100 μg/ml) for 1 h to kill extracellular bacteria. The cells were washed again with PBS, lysed in 0.025% Triton X-100, and the released intracellular bacteria were enumerated by plating on sheep blood agar plates. The results were calculated as a percent of the initial inoculum and expressed as percent relative invasion compared to percent invasion of RS218 in the presence of vehicle control (DMSO). Each set was run in triplicates.
# E. coli. Human BMEC association and invasion assays were carried out as described previously (15). Briefly, for association assays, confluent human BMEC in 24-well tissue culture plates were incubated with 10^7 CFU of E. coli at a multiplicity of infection of 100 for 90 minutes at 37° C. […]
# E. coli K1 strain RS218 = assay: Mouse model of experimental hematogenous E. coli meningitis (5-LO-/- and wild-type 129SvEv mice); assay type: in vivo
# Text: Female 5-LO−/− (129-Alox5^tm1Fun/J) and strain-matched (129SvEv) wild-type mice, 9˜12 week old and 18˜26 gm, were used (23). […] Most animals receiving 1×10^7 CFUs, however, died between one and two hour of intravenous inoculation. Based on these observations, we examined and compared E. coli K1 penetration into the brain at one hour following intravenous administration of 1×10^7 CFUs of strain RS218 in 5-LO−/− and wild type mice.
# Mice were anesthetized with pentobarbital sodium given subcutaneously at 50 mg/kg and each mouse received 1×10^7 CFU of E. coli RS218 in 100 μl PBS via the tail vein. One hour later, mouse chest was cut open, and blood from right ventricle was collected and plated for bacterial counts (CFUs). The mouse was, then, perfused with a mammalian Ringer's solution by transcardiac perfusion through a 23-gauge needle inserted into the left ventricle of the heart under the perfusion pressure of about 100 mmHg. The perfusate exited through a cut in the right atrium. The composition of the mammalian Ringer solution was: (in mM) 132 NaCl, 4.6 KCl, 2 CaCl2, 1.2 MgSO4, 5.5 glucose, 5.0 NaHCO3, and 20 HEPES and Na-HEPES, containing 10 mg/ml BSA; pH of the Ringer solution was maintained at 7.40-7.45 by adjustment of the ratio of Na-HEPES to HEPES. […] Bacterial penetration into the brain was also expressed as (brain CFUs per gm/blood CFUs per ml)×100. […]
# human BMEC [4] = assay: Type III GBS binding and invasion assays in human BMEC; assay type: cell-based; conditions: inhibitors of cPLA2α, Rho kinase, Rac1 and PKC
# Experimental: GBS. Logarithmic phase cultures of GBS grown in Todd-Hewitt broth at 37° C. were washed and suspended in tissue culture medium. Approximately 5×10^5 CFUs of GBS were added to confluent human BMEC grown in each well of a 24-well plate (Corning Costar, multiplicity of infection of 5 bacteria/cell). The plates were centrifuged at 800×g for 10 min to promote the contact of GBS to the surface of the human BMEC monolayer, and then they were incubated for 2 hr at 37° C. The monolayers were washed three times with PBS and incubated with medium containing gentamicin (100 μg/ml) and penicillin (5 μg/ml) at 37° for 2 hr to kill extracellular bacteria. The monolayers were washed again, lysed, and viable intracellular bacteria were enumerated by culturing onto sheep blood agar plates. The percent invasion was calculated as (the number of intracellular bacteria divided by the number of bacteria inoculated)×100. Each assay was run in triplicate and also repeated at least twice. In one set of experiments the total GBS associated with human BMEC were quantified by the above procedure except that the incubation with gentamicin/penicillin was omitted.
# Briefly, human BMEC were pretreated with AACOCF3 for 60 min, and then processed for type III GBS and E. coli K1 binding and invasion assays, as described above.
# We next examined the effect of montelukast on type III GBS and E. coli K1 invasion of human BMEC by the methods described earlier. Briefly, human BMEC were treated with monelukast for 60 min and then processed for binding and invasion assays with type III GBS strain K79 and E. coli K1 strain RS 218.
# PKC = assay: Activation of PKC and other signaling molecules in response to microbes in human BMEC; assay type: cell-based; conditions: response to type III GBS and E. coli K1 in human BMEC monolayers
# Text: We have previously shown that RhoGTPases and PKC contribute to type III GBS and E. coli K1 invasion of BMEC monolayers (1-3), and our next studies were to examine whether cPLA2α activations are related to RhoGTPases and PKC in type III GBS and E. coli K1 invasion of human BMEC monolayers (e.g., up- and down-stream of each other) by using inhibitors of cPLA2α (AACOCF3), Rho kinase (Y-27632), Rac1 (NSC-23766) and PKC (calphostin C).
# [5] = cited from earlier work
compound,measurement,setting,value
CC(=O)O[C@@H]1C[C@@H]2[C@@]3(C)CCCC(C)(C)[C@@H]3CC[C@@]2(C)[C@@H]2CC=C(C=O)[C@H](C=O)[C@@]12C [12-episcalaradial],E. coli invasion of human BMEC,HBMEC [1],did not exhibit any significant inhibition
same,GBS invasion of human BMEC,human BMEC [2],did not exhibit any significant inhibition
O=C(O)C1(c2ccc3c(c2)OC[C@H](Cc2ccc(-c4ccccc4)cc2)[C@H]3O)CCCC1 [CP105696],E. coli K1 invasion of HBMEC,HBMEC [3],failed to affect E. coli K1 invasion of human BMEC monolayers; also recorded: failed to exhibit any inhibition of E. coli invasion of HBMEC
CCCCC/C=C\C\C=C/C=C/C=C/[C@@H](SC[C@H](N)C(=O)NCC(=O)O)[C@@H](O)CCCC(=O)O [LTD4],E. coli penetration into the brains,"E. coli K1 strain RS218; 5-LO-/- mice, one hour after i.v. E. coli K1 strain RS218",rescued the decreased E. coli penetration into the brains
CN(C)C(=O)CCSC(SCCC(=O)O)c1cccc(/C=C/c2ccc3ccc(Cl)cc3n2)c1 (stereo not shown) [MK571],E. coli K1 penetration into the brain (brain CFU/gm and percent of brain CFU/blood CFU),"E. coli K1 strain RS218; wild type mice, oral 400 μg/mouse one hour before bacterial injection, one hour after i.v. 1×10^7 CFU",significantly decreased E. coli K1 penetration into the brain in the wild type mice; also recorded: significantly decreased E. coli K1 penetration into the brain of wild type mice
same,E. coli K1 invasion of HBMEC,HBMEC [3],inhibited E. coli K1 invasion of human BMEC monolayers in a dose-dependent manner; also recorded: effective in inhibiting E. coli invasion of HBMEC in a dose-dependent manner
CC(C)c1ccc2c(c1)c(SC(C)(C)C)c(CC(C)(C)C(=O)O)n2Cc1ccc(Cl)cc1 [MK886],E. coli K1 invasion of HBMEC,HBMEC [3],significantly inhibited E. coli K1 invasion of HBMEC in a dose-dependent manner
CCN(CC)CCCC(C)Nc1nc(C)cc(Nc2ccc3nc(C)cc(N)c3c2)n1 (stereo not shown) [NSC-23766],type III GBS invasion of human BMEC monolayers,human BMEC [4],inhibited type III GBS and E. coli K1 invasion of human BMEC monolayers in a dose-dependent manner
same,inhibition of other signaling molecules,PKC,did not exhibit any inhibition of other signaling molecules
same,E. coli K1 invasion of human BMEC monolayers,HBMEC [3],inhibited type III GBS and E. coli K1 invasion of human BMEC monolayers in a dose-dependent manner
C[C@@H](N)[C@H]1CC[C@H](C(=O)Nc2ccncc2)CC1 [Y-27632],type III GBS invasion of human BMEC monolayers,human BMEC [4],inhibited type III GBS and E. coli K1 invasion of human BMEC monolayers in a dose-dependent manner
same,inhibition of other signaling molecules,PKC,did not exhibit any inhibition of other signaling molecules
same,E. coli K1 invasion of human BMEC monolayers,HBMEC [3],inhibited type III GBS and E. coli K1 invasion of human BMEC monolayers in a dose-dependent manner
O=C1O/C(=C/Br)CCC1c1cccc2ccccc12 (stereo not shown) [bromoenol lactone],E. coli invasion of human BMEC,HBMEC [1],did not exhibit any significant inhibition
same,GBS invasion of human BMEC,human BMEC [2],did not exhibit any significant inhibition
C=C1[C@@H](C)[C@H]2[C@H](Cc3ccccc3)NC(=O)[C@]23[C@H](OC(C)=O)/C=C/[C@@](C)(O)C(=O)[C@@H](C)C/C=C/[C@H]3[C@@H]1O [cytochalasin D],E. coli invasion of HBMEC,HBMEC [1],inhibited
C/C1=C/C(=O)O[C@@H]2C[C@@H](CC[C@H](C)/C=C\C=C\CC1)O[C@@](O)([C@@H]1CSC(=O)N1)C2 [latrunculin A],E. coli invasion of HBMEC,HBMEC [1],inhibited
O=C(Nc1cccc2c(=O)cc(-c3nnn[nH]3)oc12)c1ccc(OCCCCc2ccccc2)cc1 [pranlukast],safety and tolerability in clinical trials,[5]; in vivo,safe and well tolerated
COc1cc(C(=O)NS(=O)(=O)c2ccccc2C)ccc1Cc1cn(C)c2ccc(NC(=O)OC3CCCC3)cc12 [zafirlukast],E. coli K1 invasion of HBMEC,HBMEC [3],effective in inhibiting E. coli invasion of HBMEC in a dose-dependent manner
same,safety and tolerability in clinical trials,[5]; developed for asthma,safe and well tolerated
"CC(c1cc2ccccc2s1)N(O)C(N)=O (stereo not shown) [zileuton, Zileuton]",E. coli K1 invasion of HBMEC,HBMEC [3],significantly inhibited E. coli K1 invasion of HBMEC in a dose-dependent manner
same,safety and tolerability in clinical trials,[5]; developed for asthma,safe and well tolerated
calphostin C,type III GBS invasion of human BMEC monolayers,human BMEC [4],inhibited type III GBS and E. coli K1 invasion of human BMEC monolayers in a dose-dependent manner
same,inhibition of other signaling molecules,PKC,did not exhibit any inhibition of other signaling molecules
same,E. coli K1 invasion of human BMEC monolayers,HBMEC [3],inhibited type III GBS and E. coli K1 invasion of human BMEC monolayers in a dose-dependent manner
